The values that follow come from ChEMBL document CHEMBL3596163, “Discovery of imidazo[1,5-a]pyridines and -pyrimidines as potent and selective RORc inverse agonists” (Bioorg Med Chem Lett, 2015).

Converted amounts (≈) assume the structure as drawn. A value given as a limit tells only on which side of the number the result lay.

For data set [1], the system named is MDCK. The data set is described as follows: Efflux ratio of apparent permeability from apical to basolateral side over basolateral to apical side in MDCK cells at 2 uM by LC-MS/MS analysis. It counts as ADME, cell-based, Canis lupus familiaris. Conditions: dog.
The nature of data set [2]: Apparent permeability from basolateral to apical side in MDCK cells at 2 uM by LC-MS/MS analysis. It counts as ADME, cell-based, Canis lupus familiaris. Conditions: dog.
In data set [3] the target is T1, Nuclear receptor ROR-gamma (Homo sapiens, UniProt P51449).
T1 sequence (P51449 whole entry): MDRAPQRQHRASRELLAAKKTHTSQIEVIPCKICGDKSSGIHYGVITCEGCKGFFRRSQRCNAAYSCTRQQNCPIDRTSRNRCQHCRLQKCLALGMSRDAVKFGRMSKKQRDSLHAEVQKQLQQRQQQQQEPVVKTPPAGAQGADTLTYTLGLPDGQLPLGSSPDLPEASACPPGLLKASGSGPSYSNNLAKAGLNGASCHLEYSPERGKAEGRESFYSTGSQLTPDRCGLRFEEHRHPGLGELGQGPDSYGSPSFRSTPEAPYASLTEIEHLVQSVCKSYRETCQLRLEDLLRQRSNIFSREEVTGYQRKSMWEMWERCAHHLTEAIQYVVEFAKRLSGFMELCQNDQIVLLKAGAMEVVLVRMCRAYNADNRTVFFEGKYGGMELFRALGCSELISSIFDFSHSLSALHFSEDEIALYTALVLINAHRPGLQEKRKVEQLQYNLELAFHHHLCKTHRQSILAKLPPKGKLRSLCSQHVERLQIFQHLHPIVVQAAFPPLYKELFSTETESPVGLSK
The data set is described as follows: Inverse agonist activity at GAL4-fused human RORc expressed in HEK293T cells assessed as suppression of basal transcriptional activity after 20 hrs by dual-glo luciferase reporter gene assay. In kind it is functional, cell-based, HEK-293T. For orientation: Reporter assays use an easily measured gene product as a stand-in for the process of interest.

Data set [4] addresses T1, Nuclear receptor ROR-gamma. The data set can be described thus: Inverse agonist activity at N-terminal 6xHis-tagged human RORc ligand binding domain (241 to 486) expressed in bacterial expression system assessed as inhibition of SRC1 co-activator peptide recruitment after 3 hrs by TR-FRET analysis. In kind it is functional. (In general: TR-FRET usually uses a lanthanide donor and a delayed reading to cut background.)

Data set [5] in a line: Kinetic aqueous solubility of the compound in PBS buffer at 23 degC after 24 hrs by LC/CLND analysis. Conditions: read-out: Kinetic_solubility. In kind it is physicochemical.
Data set [6] can be described thus: Apparent permeability from apical to basolateral side in MDCK cells at 2 uM by LC-MS/MS analysis. In kind it is ADME, cell-based, Canis lupus familiaris. Conditions: dog.
A short description of data set [7]: Plasma protein binding in rat at 5 uM after 4 hrs by equilibrium dialysis method. It counts as ADME, cell-free. As to conditions: read-out: PPB. A general note: In equilibrium dialysis only unbound substance equilibrates across the membrane.
Data set [8] is described as follows: Plasma protein binding in human at 5 uM after 4 hrs by equilibrium dialysis method. It counts as ADME, cell-free. Conditions: read-out: PPB.
A short description of data set [9]: Oral bioavailability in Sprague-Dawley rat at […]. In kind it is ADME, organism-based. As to conditions: in vivo.
Data set [10] is described as follows: Volume of distribution in Sprague-Dawley rat at 0.5 mg/kg, iv. It counts as ADME, organism-based. Conditions: in vivo.
Data set [11] can be described thus: AUC in Sprague-Dawley rat at […], po. In kind it is ADME, organism-based. Conditions: in vivo.
Data set [12] can be described thus: Plasma clearance in Sprague-Dawley rat at 0.5 mg/kg, iv. In kind it is ADME, organism-based.
A short description of data set [13]: Cmax in Sprague-Dawley rat at […], po. It counts as ADME, organism-based. Details: dose 1.5 mg/kg, route oral. As to conditions: in vivo.
Data set [14] can be described thus: Half life in Sprague-Dawley rat at 0.5 mg/kg, iv. It counts as ADME, organism-based. Conditions: in vivo.

The term Papp B→A denotes the apparent permeability from the basolateral to the apical side of a cell layer. As usually defined, the EC50 is the midpoint of the concentration-response curve. What is called Papp A→B is the apparent permeability from the apical to the basolateral side of a cell layer. `O=C(O)c1ccc(-c2nc(C(=O)c3c(Cl)cccc3C3CC3)n3cccnc23)cc1O`: the Ratio in data set [1] was under 2. In addition, the Papp B→A at 2 µM in data set [2] was found to be 150 nm/s. The 50% effective concentration (EC50) in [3] was determined as 0.013 µM; in data set [4], 0.002 µM. Besides, the solubility kinetic at 24 h in data set [5] was determined as 45 µM (≈ 19.5 µg/mL). Moreover, in data set [6], the Papp A→B at 2 µM was 80 nm/s. The fraction unbound at 4 h, 5 µM in [7] and in [8] was 0.01 each time.
For orientation: bioavailability means dose-corrected exposure relative to a reference, in per cent. A higher bioavailability goes with good availability. Broadly, the Vd is a proportionality between amount in the body and measured concentration, not a real space. A high value points to extensive tissue distribution. As a reminder, the AUC is concentration integrated over time. Read a high AUC as high exposure. A word on the clearance: it is the rate of elimination divided by the concentration. As usually defined, the Cmax is the maximum level reached in the sampled fluid or tissue. The half-life is the time needed for the level to fall by half in the phase considered. Read a high half-life as slow loss. On to `O=C(O)c1ccc(-c2nc(C(=O)c3c(Cl)cccc3C(F)(F)F)n3ccccc23)cc1O`, for which the Ratio in data set [1] is on record as under 2. The Papp B→A at 2 µM in [2] was found to be 100 nm/s. Moreover, the bioavailability in data set [9] was found to be 40%. Also, the values for the EC50 in [3] and in [4] were 0.004 µM and 0.002 µM, respectively. Besides, the Vd in [10] was 1.2 L/kg. Besides, in data set [5], the solubility kinetic at 24 h is 86 µM (≈ 39.6 µg/mL). The Papp A→B at 2 µM in data set [6] is 120 nm/s. The AUC in data set [11] was determined as 250 nM·h. Besides, the clearance in [12] stood at 7.8 L/h/kg. Also, the fraction unbound at 4 h, 5 µM in [7] and in data set [8] was under 0.01 throughout. Further, in data set [13], the Cmax is 0.07 µM. Besides, in data set [14], the half-life was 12 min.
In the case of `O=C(O)c1ccc(-c2nc(C(=O)c3c(Cl)cccc3C(F)(F)F)n3ccccc23)c(F)c1`, the concentration giving a half-maximal response (EC50) in data set [3] is 0.01 µM; in [4], 0.009 µM.
As for `O=C(O)c1ccc(-c2nc(C(=O)c3c(Cl)cccc3C(F)(F)F)n3c2CCCC3)c(F)c1`, the figures for the EC50 in data set [3] and in data set [4] were 0.036 µM and 0.032 µM, respectively.
The matching figures for `O=C(O)c1ccc(-c2nc(C(=O)c3c(Cl)cccc3C3CC3)n3c2CCCC3)c(F)c1`: 0.026 µM and 0.027 µM.
